{
  "source": "paper PMC6389625",
  "about": "“The Impact and Mechanism of a Novel Allosteric AMPA Receptor Modulator LCX001 on Protection Against Respiratory Depression in Rodents” (Frontiers in Pharmacology, 2019)",
  "key": {"[1]": {"test_system": "unanaesthetised adult male SD rats"}, "AMPA receptors": {"test_system": "AMPA receptors", "assay": "[3H]AMPA binding to brainstem membranes", "design": "species or system rat", "conditions": "for specific [3H]AMPA binding: 200 nM [3H]AMPA", "description": "Adult male SD rats (220–250 g) were euthanized by decapitation. The brainstems were dissected and homogenized for 2 min in 15 volumes of ice-cold 50 mM Tris–HCl buffer (pH 7.4) at 4°C. The homogenates were centrifuged at 1,000 g for 10 min, and the supernatants were collected and centrifuged at 40,000 g for 20 min. The pellets were dispersed in 50 mM Tris-HCl pH 7.4 and centrifuged at 40,000 g for 20 min. The last procedures were repeated a third time with a total of four washes to eliminate endogenous glutamate from the tissue. The resulting pellets were suspended in eight volumes of 0.3 M sucrose, then stored at –70°C until use. […] The binding reaction was performed in disposable glass culture tubes at 25°C for 60 min. […] The pellets were washed with ice-cold Tris-HCl pH 7.4 three times and dried with a piece of tissue paper. […] The binding activity on the filters was detected using a LS6500 scintillation counter (Beckman, Shanghai, China). […] Data are presented as the mean ± standard error of the mean (SEM). In the acetic acid writhing and hot-plate tests, experiments were performed blind. Compounds were injected by one researcher and the behavior or data was recorded by another researcher. The significance of change in respiratory parameters was evaluated by repeated measures two-way ANOVA (dose × time) followed by Bonferroni post-hoc tests for comparisons between groups. In the analysis of the acetic acid writhing test, hot-plate test and [^3H]AMPA binding assay, statistical evaluation between the treated groups and control group was performed by one-way ANOVA followed by Dunnett’s test. For saturation binding with [^3H]AMPA, Kd and Bmax values of different groups were obtained from fits to saturation binding curves with the KaleidaGraph programme. For whole-cell patch-clamp recordings, dose-response curves were fitted to the Hill equation using Origin 9.0 software (Originlab, MA, United States) and statistical significance was determined by one-way ANOVA followed by Dunnett’s test. For live cell imaging, two-way ANOVA followed by Bonferroni post-hoc tests was used to compare the treated groups and vehicle group."}, "female KM mice": {"test_system": "female KM mice", "assay": "Hot-plate test", "format": "in vivo, mouse"}, "male KM mice": {"test_system": "male KM mice", "assay": "Acetic acid writhing test", "format": "in vivo, mouse", "conditions": "for inhibition of acetic acid-induced writhing: 10 min before 0.6% acetic acid"}, "[2]": {"biological_target": "T1, recombinant homomeric GluA2(R)flop receptor (Rattus norvegicus, UniProt P19491, Q607R)", "T1 construct": "rat AMPA-GluA2(R)flop cDNA corresponding to the entire coding region; expressed in transfected cells", "T1 sequence (P19491 22-883 Q607R)": "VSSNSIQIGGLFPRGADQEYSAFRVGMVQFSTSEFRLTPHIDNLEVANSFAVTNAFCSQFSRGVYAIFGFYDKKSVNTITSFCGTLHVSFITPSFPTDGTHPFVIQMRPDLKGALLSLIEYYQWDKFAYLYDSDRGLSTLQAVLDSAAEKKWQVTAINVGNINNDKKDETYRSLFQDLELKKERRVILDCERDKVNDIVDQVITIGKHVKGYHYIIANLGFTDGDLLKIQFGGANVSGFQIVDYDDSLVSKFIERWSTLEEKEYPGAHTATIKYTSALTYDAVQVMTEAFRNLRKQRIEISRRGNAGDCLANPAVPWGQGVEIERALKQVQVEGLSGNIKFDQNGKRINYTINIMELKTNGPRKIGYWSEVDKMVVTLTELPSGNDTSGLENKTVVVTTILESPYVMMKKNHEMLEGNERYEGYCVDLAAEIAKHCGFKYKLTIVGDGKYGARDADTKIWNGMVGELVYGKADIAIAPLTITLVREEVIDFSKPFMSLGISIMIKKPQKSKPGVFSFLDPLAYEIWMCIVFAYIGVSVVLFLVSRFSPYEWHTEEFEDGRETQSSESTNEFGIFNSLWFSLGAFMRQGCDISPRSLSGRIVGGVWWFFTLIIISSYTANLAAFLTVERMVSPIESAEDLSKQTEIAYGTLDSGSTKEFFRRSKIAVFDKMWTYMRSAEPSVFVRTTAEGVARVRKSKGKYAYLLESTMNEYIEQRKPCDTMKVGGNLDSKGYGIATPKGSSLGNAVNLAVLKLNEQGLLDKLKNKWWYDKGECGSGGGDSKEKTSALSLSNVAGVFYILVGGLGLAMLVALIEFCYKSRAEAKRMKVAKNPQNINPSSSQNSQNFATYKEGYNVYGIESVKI", "assay": "Whole-cell patch-clamp recording of glutamate-evoked currents in HEK293 cells", "format": "cell-based", "description": "A wild-type rat AMPA-GluA2(R)flop cDNA corresponding to the entire coding region was generated and cloned into the pcDNA^TM3.1(+) vector (Invitrogen, China, Catalog no. V790-20) by Sangon Biotech Co., Ltd. (Shanghai, China). […] For stable transfection, HEK293 cells (3 × 10^4 cells/well) were seeded in 24-well plates the day before transfection. The cells were grown to 70–90% confluency, and the transfection was performed by adding 1 μg of GluA2 expressing vector per well. Twenty-four hours after transfection, the normal medium was replaced with DMEM/F12 (Gibco, Shanghai, China) growth medium supplemented with 1.0 mg/ml G418 (Gibco, Shanghai, China) and cultured for 7 days. The surviving cells were pelleted and dispersed (100 cells/20 ml), and then seeded into 96-well plates in DMEM/F12 medium containing 500 μg/ml G418. Discrete colonies were picked after 15 days of selection. Western blotting and whole-cell patch-clamp recording were performed to test expression of the AMPA receptor GluA2 subunit and formation of an AMPA-GluA2 ion channel. G418 was kept at 500 μg/ml for the maintenance of stably transfected clones.\nHEK293 cells that stably expressed AMPA-GluA2 receptors were seeded into the recording chamber 2 days before patch-clamp recordings, and the experiments were conducted in whole-cell configuration. Thin-walled borosilicate glass (Sutter Instrument, CA, United States) was pulled to make patch pipettes. […] The holding potential was set as -80 mV by an Axopatch-700B amplifier (Axon Instruments, CA, United States), and pClamp8 software (Axon Instruments, CA, United States) was used for data acquisition. Currents were recorded and digitized at 10 kHz. […] LCX001 and CX614 were dissolved in dimethyl sulfoxide (DMSO) before dilution with external bath solution (DMSO final concentration 0.5%). Dose-response curves were fitted to the Hill equation using Origin 9.0 software."}, "SEP-GluA1": {"test_system": "SEP-GluA1", "assay": "Live cell imaging of SEP-GluA1 surface expression in primary medulla oblongata neurons", "format": "cell-based, rat", "conditions": "47 μM final, added at 2 min; P > 0.05"}, "SEP-GluA2(R)": {"biological_target": "T2, SEP-GluA2(R) (Rattus norvegicus, UniProt P19491, Q607R)", "T2 construct": "adenovirus by Hanbio biotechnology plasmid #24001; host or cells: primary medulla oblongata neurons of neonatal SD rats", "T2 sequence (P19491 22-883 Q607R)": "as above", "assay": "Live cell imaging of SEP-GluA2(R) surface expression in primary medulla oblongata neurons", "format": "cell-based", "conditions": "47 μM final, added at 2 min"}, "[3]": {"test_system": "intracellular calcium concentration ([Ca^2+]i) of cultured medullary neurons", "assay": "Ca2+ imaging (Fluo-4 NW) in primary medulla oblongata neurons", "format": "cell-based, rat", "conditions": "40 μM final at 7 min, after glutamate 18 μM and fentanyl or TH-030418 42 μM"}, "rodents": {"test_system": "rodents", "assay": "Observation of over-excitability after administration", "format": "in vivo", "conditions": "up to 60 mg/kg"}, "rat dentate gyrus": {"test_system": "rat dentate gyrus", "design": "method as in Street et al., 2008; Mueller and Street, 2012", "conditions": "ref Street et al., 2008, Mueller and Street, 2012; cited from earlier work"}},
  "data": [
    {"compound": "CC(C)c1cccc(C(C)C)c1O", "note": "[propofol, reference compound]", "values": [
      {"measurement": "duration of propofol-mediated respiratory depression", "setting": "[1]; male, SD, rat, in vivo", "result": "15 to 25", "unit": "min"},
      {"measurement": "respiratory frequency", "setting": "[1]; male, SD, rat, in vivo", "result": "53.6 ± 5.8 % of control"}
    ]},
    {"compound": "Cc1o[nH]c(=O)c1CC(N)C(=O)O", "note": "(stereo not shown) [[^3H]AMPA, reference compound]", "values": [
      {"measurement": "Bmax of [3H]AMPA saturation binding", "setting": "AMPA receptors; without LCX001, one-site model", "result": "6.89 ± 0.11 pmol/mg of protein"},
      {"measurement": "Kd", "setting": "AMPA receptors; without LCX001, one-site model, read-out: Kd of [3H]AMPA saturation binding", "result": "171 ± 5", "unit": "nM"}
    ]},
    {"compound": "CN1CC[C@]23c4c5ccc(O)c4O[C@H]2[C@@H](O)C=C[C@H]3[C@H]1C5", "note": "[morphine, reference compound]", "values": [
      {"measurement": "%MPE", "setting": "female KM mice; 10 mg/kg s.c., 30 min after injection, 55°C", "result": "about 100%"}
    ]},
    {"compound": "CN(C(=O)c1ccc2nonc2c1)[C@H]1CC[C@H](O)CC1", "note": "[LCX001, N-((1r,4r)-4-hydroxycyclohexyl)-N-methylbenzo[c][1,2,5]oxadiazole-5-carboxamid]", "values": [
      {"measurement": "inhibition of acetic acid-induced writhing", "setting": "male KM mice; 1.5 mg/kg i.v.", "result": "30.76 ± 12.75", "unit": "%"},
      {"measurement": "inhibition of acetic acid-induced writhing", "setting": "male KM mice; 3 mg/kg i.v.", "result": "41.43 ± 11.32", "unit": "%"},
      {"measurement": "inhibition of acetic acid-induced writhing", "setting": "male KM mice; 6 mg/kg i.v.", "result": "85.35 ± 9.53", "unit": "%"},
      {"measurement": "inhibition of acetic acid-induced writhing", "setting": "male KM mice; 12 mg/kg i.v.", "result": "94.78 ± 2.74", "unit": "%"},
      {"measurement": "impact on the analgesic effect of morphine (writhing test)", "setting": "male KM mice; LCX001 12 mg/kg i.v. 10 min before morphine 2.5 mg/kg s.c., P > 0.05", "result": "no impact"},
      {"measurement": "%MPE compared with vehicle", "setting": "female KM mice; 1.5 mg/kg i.v., 10 min after administration, P > 0.05", "result": "no effect"},
      {"measurement": "%MPE compared with vehicle", "setting": "female KM mice; 3 mg/kg i.v., 10 min after administration, P > 0.05", "result": "no effect"},
      {"measurement": "%MPE", "setting": "female KM mice; 6 mg/kg i.v., 10 min after administration", "result": "30.18 ± 10.56", "unit": "%"},
      {"measurement": "%MPE", "setting": "female KM mice; 12 mg/kg i.v., 10 min after administration", "result": "65.27 ± 12.22", "unit": "%"},
      {"measurement": "impact on the analgesic effect of morphine (hot-plate test)", "setting": "female KM mice; LCX001 12 mg/kg i.v. 10 min before morphine 10 mg/kg s.c., P > 0.05", "result": "no impact"},
      {"measurement": "specific [3H]AMPA binding", "setting": "AMPA receptors; LCX001 10^-4 M, control 1595 ± 30", "result": "2095 ± 87", "unit": "cpm/mg protein"},
      {"measurement": "Bmax of [3H]AMPA after pre-incubation with LCX001", "setting": "AMPA receptors; LCX001 10^-4 M, without LCX001 6.89 ± 0.11", "result": "7.77 ± 0.17 pmol/mg of protein"},
      {"measurement": "specific [3H]AMPA binding", "setting": "AMPA receptors; LCX001 10^-5 M, control 1595 ± 30", "result": "1964 ± 27", "unit": "cpm/mg protein"},
      {"measurement": "specific [3H]AMPA binding", "setting": "AMPA receptors; LCX001 10^-6 M, control 1595 ± 30", "result": "1857 ± 20", "unit": "cpm/mg protein"},
      {"measurement": "specific [3H]AMPA binding", "setting": "AMPA receptors; LCX001 10^-9–10^-7 M, control 1595 ± 30 cpm/mg protein", "result": "unchanged"},
      {"measurement": "nH of glutamate concentration-response curve in the presence of modulator", "setting": "[2]; 100 μM modulator", "result": 0.84},
      {"measurement": "glutamate evoked peak amplitude", "setting": "[2]; 3.5 mM glutamate, 100 μM modulator, control 432 ± 27 pA", "result": "711 ± 20", "unit": "pA"},
      {"measurement": "glutamate evoked peak amplitude", "setting": "[2]; 10 mM glutamate, 100 μM modulator, control 752 ± 35 pA", "result": "1120 ± 60", "unit": "pA"},
      {"measurement": "current induced by compound alone", "setting": "[2]; in the absence of glutamate", "result": "no current"},
      {"measurement": "SEP-GluA1 fluorescence intensity", "setting": "SEP-GluA1", "result": "no impact"},
      {"measurement": "SEP-GluA2 fluorescence intensity", "setting": "SEP-GluA2(R)", "result": "significant and fast increase"},
      {"measurement": "effect on the increased level of [Ca^2+]i in response to fentanyl and TH-030418", "setting": "[3]", "result": "significantly blocked"},
      {"measurement": "over-excitability after administration", "setting": "rodents", "result": "no evidence of over-excitability"},
      {"measurement": "effect on Nembutal-induced respiratory depression", "setting": "[1]; LCX001 10 mg/kg i.v. 5 min after Nembutal 80 mg/kg i.p., P < 0.05", "result": "ameliorated respiratory depression"},
      {"measurement": "effect on TH-030418-induced respiratory depression", "setting": "[1]; LCX001 10 mg/kg i.v. 5 min after TH-030418 20 μg/kg i.v., P < 0.05", "result": "alleviated the reduction of respiratory parameters"},
      {"measurement": "effect on fentanyl-induced respiratory depression (respiratory frequency, minute ventilation)", "setting": "[1]; LCX001 10 mg/kg i.v. 5 min after fentanyl 120 μg/kg s.c., P < 0.05", "result": "effectively countered the inhibition of respiratory frequency and minute ventilation"},
      {"measurement": "effect on propofol-induced respiratory depression", "setting": "[1]; LCX001 10 mg/kg i.v. 10 min before propofol 30 mg/kg i.v., P < 0.05", "result": "reversed the acute reduction of respiratory frequency and minute ventilation"},
      {"measurement": "increase in the amplitude of synaptic currents", "setting": "rat dentate gyrus", "result": 21, "unit": "%"}
    ]},
    {"compound": "CCCC(C)C1(CC)C(=O)NC(=O)NC1=O", "note": "(stereo not shown) [Nembutal, reference compound]", "values": [
      {"measurement": "respiratory frequency", "setting": "[1]; male, SD, rat, in vivo", "result": "70.3 ± 2.7 % of control"}
    ]}
  ]
}
